Test results taken from PMC9713482, “Discovery of (R)-2-amino-3-triazolpropanoic acid derivatives as NMDA receptor glycine site agonists with GluN2 subunit-specific activity” (Frontiers in Chemistry, 2022).

How the values were obtained:
Assay in all cases: cell-based
GluN1/2B [1] = target: T1, GluN1/2B (Rattus norvegicus, UniProt P35439); design: species or system Xenopus laevis oocytes; two-electrode voltage-clamp recording of NMDA receptor agonist responses with 300 uM glutamate, relative to maximal glycine response; conditions: Oocyte; 300 uM glutamate; read-out: % activation
T1 construct: gene Grin1; full-length subunits co-expressed from cRNA (1:2) in Xenopus laevis oocytes; GluN2B ORF altered only silently; heterotetramer; with Glutamate receptor ionotropic, NMDA 2B
Protocol: (§1) Oocytes were injected with cRNAs for GluN1 and GluN2 subunits at a 1:2 ratio, and incubated as previously described ([Hansen et al., 2013]). The injected oocytes were used for two-electrode voltage-clamp recordings at room temperature (21–23°C) after 2–4 days of expression. as previously described ([Hansen et al., 2013]). The holding potential was −40 mV in all recordings. The recording solution was comprised of (in mM) 90 NaCl, 1 KCl, 10 HEPES, 0.5 BaCl2 and 0.01 EDTA (pH 7.4). For experiments with GluN1/2A or GluN1/2B receptors, the oocytes were injected at least 10 min before recordings with 50 mM BAPTA (30–50 nL) to minimize use-dependent increases in response amplitudes ([Williams, 1993]). Compounds were dissolved as 20–100 mM stock solutions in DMSO, and DMSO concentrations were constant in all recording solutions and never exceeded 1%. GraphPad Prism (GraphPad Software, La Jolla, CA) was used to analyze agonist concentration-response data. Briefly, the data for each oocyte were fitted to the following Hill equation, I = Rmax/(1 + 10^((logEC50-log [A])*nH)). […] The pharmacological properties of analogues 13a-j and 16 were determined with two-electrode voltage-clamp recordings of responses from recombinant NMDA receptor subtypes (Table 1; Figure 4). Compound 13f was identified as agonist with lower maximal response relative to glycine (Rmax) at GluN1/2A (47%) and GluN1/2B (23%), but Rmax similar to glycine at GluN1/2C (94%) and GluN1/2D (96%).

GluN1/2C [2] = target: T2, GluN1/2C (Rattus norvegicus, UniProt P35439); design: species or system Xenopus laevis oocytes; two-electrode voltage-clamp recording of NMDA receptor agonist responses with 300 uM glutamate, relative to maximal glycine response; conditions: Oocyte; 300 uM glutamate; read-out: % activation
T2 construct: gene Grin1; full-length subunits co-expressed from cRNA (1:2) in Xenopus laevis oocytes; heterotetramer (human Q14957 was used only for modelling); with Glutamate receptor ionotropic, NMDA 2C
Protocol: as §1

GluN1/2D [3] = target: T3, GluN1/2D (Rattus norvegicus, UniProt P35439); design: species or system Xenopus laevis oocytes; two-electrode voltage-clamp recording of NMDA receptor agonist responses with 300 uM glutamate, relative to maximal glycine response; conditions: Oocyte; 300 uM glutamate; read-out: % activation
T3 construct: gene Grin1; full-length subunits co-expressed from cRNA (1:2) in Xenopus laevis oocytes; heterotetramer; with Glutamate receptor ionotropic, NMDA 2D
Protocol: as §1

GluN1/2B [4] = target: T1, GluN1/2B; design: species or system Xenopus laevis oocytes; Two-electrode voltage-clamp concentration-response of glycine-site agonists with saturating glutamate; efficacy relative to 100 uM glycine; conditions: Oocyte; fitted maximum relative to 100 uM glycine, saturating glutamate; read-out: Rel. efficacy (%) / 100 / 100.0775
Description: (§2) For expression in Xenopus laevis oocytes purchased from Rob Weymouth (Xenopus 1, Dexter, MI), cDNAs encoding rat NMDA receptor subunits, GluN1-1a (Genbank accession number U11418 and U08261), GluN2A (D13211), GluN2B (U11419), GluN2C (M91563), and GluN2D (L31611), were used to produce cRNAs using the mMessage mMachine kit (Ambion, Life Technologies, Paisley, United Kingdom) according to the manufacturer’s protocol. The open reading frame of the GluN2B subunit was altered without changing the amino acid sequence to remove a termination site for the T7 RNA polymerase used to synthesize cRNA ([Hansen et al., 2014]). Oocytes were injected with cRNAs for GluN1 and GluN2 subunits at a 1:2 ratio, and incubated as previously described ([Hansen et al., 2013]). The injected oocytes were used for two-electrode […] recordings at room temperature (21–23°C) after 2–4 days of expression. as previously described ([Hansen et al., 2013]). The holding potential was −40 mV in all recordings. The recording solution was comprised of (in mM) 90 NaCl, 1 KCl, 10 HEPES, 0.5 BaCl2 and 0.01 EDTA (pH 7.4). For experiments with GluN1/2A or GluN1/2B receptors, the oocytes were injected at least 10 min before recordings with 50 mM BAPTA (30–50 nL) to minimize use-dependent increases in response amplitudes ([Williams, 1993]). Compounds were dissolved as 20–100 mM stock solutions in DMSO, and DMSO concentrations were constant in all recording solutions and never exceeded 1%. GraphPad Prism (GraphPad Software, La Jolla, CA) was used to analyze agonist concentration-response data. Briefly, the data for each oocyte were fitted to the following Hill equation, I = Rmax/(1 + 10^((logEC50-log [A])*nH)).

GluN1/2C [5] = target: T2, GluN1/2C; design: species or system Xenopus laevis oocytes; Two-electrode voltage-clamp concentration-response of glycine-site agonists with saturating glutamate; efficacy relative to 100 uM glycine; conditions: Oocyte; fitted maximum relative to 100 uM glycine, saturating glutamate; read-out: Rel. efficacy (%) / 100 / 111.08
Description: as §2

GluN1/2D [6] = target: T3, GluN1/2D; design: species or system Xenopus laevis oocytes; Two-electrode voltage-clamp concentration-response of glycine-site agonists with saturating glutamate; efficacy relative to 100 uM glycine; conditions: Oocyte; fitted maximum relative to 100 uM glycine, saturating glutamate; read-out: Rel. efficacy (%) / 100 / 92.671
Description: as §2

GluN1/2A = target: T4, GluN1/2A (Rattus norvegicus, UniProt P35439); design: species or system Xenopus laevis oocytes; Two-electrode voltage-clamp concentration-response of glycine-site agonists with saturating glutamate; efficacy relative to 100 uM glycine; conditions: Oocyte; fitted maximum relative to 100 uM glycine, saturating glutamate; read-out: Rel. efficacy (%) / 99.6672727273 / 96.0542857143
T4 construct: gene Grin1; full-length subunits co-expressed from cRNA (GluN1:GluN2 1:2) in Xenopus laevis oocytes; heterotetramer; glycine site in GluN1; with Glutamate receptor ionotropic, NMDA 2A
Description: as §2

SMILES	activity at 100 µM (GluN1/2B [1]) [%]	activity at 100 µM (GluN1/2C [2]) [%]	activity at 100 µM (GluN1/2D [3]) [%]	Emax (GluN1/2B [4]) [%]	Emax (GluN1/2C [5]) [%]	Emax (GluN1/2D [6]) [%]	Emax (GluN1/2A) [%]
CCCCc1cn(C[C@@H](N)C(=O)O)nn1 [13b, (R)-2-Amino-3-(4-butyl-1H-1,2,3-triazol-1-yl)propanoic acid]	9.2	27	32				
N[C@H](Cn1cc(Cc2ccccc2)nn1)C(=O)O [13c, (R)-2-Amino-3-(4-benzyl-1H-1,2,3-triazol-1-yl)propanoic acid]		12	5.9				
N[C@H](Cn1cc(CCO)nn1)C(=O)O [13a, (R)-2-Amino-3-(4-(2-hydroxyethyl)-1H-1,2,3-triazol-1-yl)propanoic acid]	6.2	22	34				
N[C@H](Cn1cc(-c2cccnc2)nn1)C(=O)O [13g, (R)-2-Amino-3-(4-(pyridin-3-yl)-1H-1,2,3-triazol-1-yl)propanoic acid]				55.7	96.9	87.5	65.5
Nc1ccc(-c2cn(C[C@@H](N)C(=O)O)nn2)cc1 [13f, (R)-2-Amino-3-(4-(4-aminophenyl)-1H-1,2,3-triazol-1-yl)propanoic acid]				22.8	93.9	96.5	47.3
N[C@H](Cn1cc(-c2ccsc2)nn1)C(=O)O [13i, (R)-2-Amino-3-(4-(thiophen-3-yl)-1H-1,2,3-triazol-1-yl)propanoic acid]				46.3	81.9	81.8	56.4
